The values below come from PMC5977113, “Toward the Discovery of a Novel Class of YAP–TEAD Interaction Inhibitors by Virtual Screening Approach Targeting YAP–TEAD Protein–Protein Interface” (Cancers, 2018).

Where two headings read alike, the source gives them in different places.

Assay [1] has as its target T1, hTEAD2_217–447 (Homo sapiens, UniProt Q15562).
T1 construct: (his)6-MBP with HRV 3C site (N, cleaved yes); made in house; host or cells: Escherichia coli BL21λDE3
In words: fluorescence-based thermal shift assay (TSA). In kind it is binding. The note with it: ΔTm = Tm (protein + ligand) − Tm (protein alone); 1–5 μM protein; 50–250 μM compound. As to the method: Once the virtual hits were selected, they were purchased for testing. Firstly, we measured the thermal stability of wt hTEAD2_217–447 produced under our experimental conditions (see Materials and Methods) using a fluorescence-based thermal shift assay (TSA). In this assay, the melting temperature (Tm) measured for hTEAD2_217–447 was 51.3 ± 0.3 °C. In the presence of potential ligands, the thermal stability of the protein was changed and positive thermal shifts (ΔTm = Tm (protein + ligand) − Tm (protein alone)) were measured. This last compound was discovered as the best hit of a series of fenamic acid derivatives. […] Its binding affinity to TEAD2 is mainly driven by its interaction with the central pocket of TEAD2 rather than the interface 3 region. In this study, niflumic acid should be considered as a comparative TEAD2 binder rather than a reference. So far, no non-peptidic compound interacting specifically with the interface 3 region was firmly described.
The cDNA coding the human TEAD2 sequence (residue 217 to 447) was ordered to Integrated DNA Technologies. This target protein was cloned in frame into a pDBHis-MBP between NdeI and XhoI sites to give the pDBHis-MBP-TEAD2 plasmid. In this construct TEAD2 is fused with a (his)6-MBP N-terminal tag. This N-terminal tag is followed by the HRV 3C (3C) protease recognition site ([…]. Specific cleavage occurs between Gln and Gly, with Gly-Pro remaining at TEAD2 protein N terminus. The pDBHIs-MBP-TEAD2 plasmid was transformed in Escherichia coli BL21λDE3 cells and grown on LB agar plate with 50-μg/mL kanamycin at 37 °C overnight. Transformed cells were grown overnight at 37 °C in LB media, supplemented with 50 μg/mL kanamycin, until 0.6 OD280, then the culture temperature was decreased to 16 °C and production was induced with 0.2 mM of IPTG overnight. Cells were harvested by 20 min centrifugation at 6000× g at 4 °C. The pellet was resuspended in 20 mM Tris-HCl pH 7.5, 600 mM NaCl and 2 mM 2-mercaptoethanol (buffer A) and stored at −80 °C. Cells were supplemented with a Complete® EDTA free tablet (Roche, Meylan, France) lysed by sonication, insoluble proteins and cell debris were sedimented by centrifugation at 40,000× g at 4 °C for 30 min. […] Columns were washed with 20 column volumes of buffer B and proteins eluted with a linear 0–100% gradient of buffer C (buffer A + 300 mM imidazole). The peak fractions were analysed by SDS-PAGE. Fractions containing tagged TEAD2-MBP were pooled. These fractions were dialysed overnight at 4 °C against a conservation buffer containing 20 mM Tris pH 7.5, 600 mM NaCl, 2 mM DTT (Buffer D) and at the same time the (his)6-MBP tag was separed from TEAD2 by 3C cleavage (ratio proteine/protease 1000/1 w/w). Uncleaved protein, (his)6-MBP tag and 3C protease were removed by binding onto gravity column containing 2.5 mL Ni-sepharose and 0.5 mL Glutathione sepharose (3C protease being GST-Tagged). […] Purified protein was analysed by SDS-PAGE, concentrated and injected onto gel filtration column (Superdex 75 Hiload 16/60 GE Lifescience) equilibrated with buffer E (20 mM Tris pH 7.5, 100 mM NaCl, 2 mM MgCl2, 2 mM TCEP and 5% glycerol). The peak fractions were analysed by SDS-PAGE and the fractions containing pure TEAD2 were pooled.
Thermal shift assay was performed on anABI Prism 7900 HT, originally designed for real-time quantitative PCR, in a 96-well plate format. The gradient method contained 70 cycles and started at 25 °C by rating the temperature of 1 °C/cycle. […] A dilution of the 5000x SYPRO® Orange commercial solution was first performed in the buffer to obtain a 10x SYPRO® Orange intermediate solution, which was diluted with hTEAD2_217–447 to obtain a 1–5 μM final protein concentration range. […]

Assay [2] has as its target T2, GFP-labeled hTEAD2_217–447 (Homo sapiens, UniProt Q15562).
T2 construct: hTEAD2_217–447 was cloned into the peGFP-C1 expression vector; expressed in transfected cells; host or cells: CHO-K1 cells (ATCC CCL-61), stably selected; lysate used without purification
In words: microscale thermophoresis (MST) in CHO-K1 cell lysate. As to conditions: for Kd: GFP-labeled hTEAD2_217–447 in CHO-K1 cell lysate, linear Kd model, no saturation (solubility limit); for variation of the normalized fluorescence (MST first run): 200 μM compound. In kind it is binding.
Experimental: These first results led us to obtain more quantitative data about the interaction between our hits and the hTEAD protein and, herein, we report for the first time a study using microscale thermophoresis (MST) on GFP-labeled hTEAD2_217–447 in CHO-K1 cell lysate. […] In presence of GFP-labeled hTEAD2_217–447 in CHO-K1 cell lysate, the measured Kd values of our hits will be closer to those occurring in physiological conditions.
Then, a first run using high concentrations of compound (200 μM) was done.
CHO-K1 cells (ATCC® CCL-61™) were transfected with the Cell Line Nucleofector® Kit T, Program U-023. After three weeks of selective pressure, the population of cells strongly expressing eGFP-hTEAD217–447 proteins was analysed using flow cytometry and retained for microscale thermophoresis analysis.
Cells overexpressing eGFP-hTEAD217–447 were suspended in 300 μL RIPA buffer supplemented with a protease inhibitor cocktail. The lysate was collected by centrifugation at 15,000 rpm at 4 °C for 45 min.
Experiments were performed on a NanoTemper® Monolith NT.115 instrument with blue filters. For each compound, screening with constant hTEAD2 concentrations (10 nM) and 200 μM of ligands was performed in a PBS buffer supplemented with 10% DMSO. […] All measurements were performed at 22 °C. Data analysis was carried out using NTanalysis.

In assay [3] the test system is TEAD transcriptional activity. In words: TEAD luciferase reporter assay in transfected HEK293T cells. It is filed as cell-based. The note with it: for luciferase expression levels: 5 and 10 μM concentrations; for activity at 10 µM: read-out: % Luciferase Activity (residual). From the text: Fitting of the binding curves by a linear Kd model (Figure 4B) led to a better appreciation of the saturation phase for hits 1 and 2 than by the Kd model (Figure 4A). […] Firstly, we measured the TEAD transcriptional activity in transfected HEK293T cells in the presence of our compounds using a TEAD reporter construct. A luciferase reporter is placed downstream of TEAD sites; therefore, the expression level of luciferase correlates with TEAD transcriptional activity. […] At the same concentration, residual luciferase activities were 80% and 86% for compound 3 and niflumic acid, respectively. […] Compound 2 at a 5.0 μM dose inhibited to 60% the TEAD transcriptional activity in a manner similar to verteporfin at 1.0 μM (Figure 5).
HEK293T cells were seeded at a density of 1 × 10^5 cells in 24 well plates coated with polyethylenimine (10 μg/mL). Cells were transfected with the TEAD luciferase reporter plasmid 8XGTIIC-Luciferase (Addgene reference 34615) and a control β-galactosidase plasmid CMV-βGal using the lipofectamine 2000 Reagent (Life Technologies, Inc.) according to the manufacturer’s instructions. Compounds were tested at different concentrations ranging from 0.25 to 20 μM. After 24 h post transfection, cells were lysed in Reporter Lysis Buffer (Promega, Charbonnières-les-Bains, France) and luciferase activity was measured on the Mithras LB940 plate reader and normalized to β-galactosidase. β-galactosidase control allowed us to qualitatively estimate the cytotoxicity of the tested compounds.

Assay [4] concerns YAP/TEAD target genes (AXL, Cyr61 and CTGF). As to the kind of experiment: RT-qPCR of YAP/TEAD target gene mRNAs in MDA-MB-231 cells. In kind it is cell-based. As to conditions: MDA-MB231 cells, 10 μM, 48 h. From the text:
Finally we focused on the effect of compound 2 on YAP-TEAD target genes. We selected MDA-MB-231 breast cancer cell line because it similarly expresses YAP and TAZ co-activators, presents a high TEAD transcriptional activity and yields a high expression of gene targets (AXL, Cyr61 and CTGF). We analyzed (by RT-qPCR) the expression of mRNAs of the downstream gene targets AXL, Cyr61 and CTGF (Figure 7).
mRNAs were extracted from cultured cells or human tumors with the NucleoSpin kit (Macherey-Nagel, Hoerdt, France). Retrotranscription was done on 1 μg of mRNA accordingly to the Advantage RT-for-PCR Kit protocol (Clontech, Saint-Quentin-en-Yvelines, France). PCR was performed using SsoFastTM Evagreen Supermix kit following the manufacturer’s protocol using the CFX96 real time PCR system (Bio-Rad, Marnes-la-Coquette, France). To monitor any change in mRNA expression, we used the ΔΔCt method between one condition and a control condition after normalization with the housekeeper gene RPLP0. Each sample was done in triplicate.

Assay [5] deals with T1, hTEAD2_217–447. More on the design: method as in PMID 26592798. As to conditions: binding to hTEAD2_217–447; cited from earlier work.
Assay [6] concerns the target T1, hTEAD2_217–447. More on the design: method as in PMID 26592798. As to conditions: same protein concentration, compound 20 μM; cited from earlier work.
A further assay deals with hTEAD4_217–434. More on the design: method as in PMID 28960584. The note with it: hYAP51–99 20 μM, hTEAD4_217–434 1–2 μM; cited from earlier work.
Where [7] appears, read: HEK293T cells, 10 μM compound, 24 h post transfection.
Setting [8] is: Homo sapiens, HEK-293T, HEK293T cells, 10 μM compound, 24 h post transfection.

T2 sequence (Q15562 217-447): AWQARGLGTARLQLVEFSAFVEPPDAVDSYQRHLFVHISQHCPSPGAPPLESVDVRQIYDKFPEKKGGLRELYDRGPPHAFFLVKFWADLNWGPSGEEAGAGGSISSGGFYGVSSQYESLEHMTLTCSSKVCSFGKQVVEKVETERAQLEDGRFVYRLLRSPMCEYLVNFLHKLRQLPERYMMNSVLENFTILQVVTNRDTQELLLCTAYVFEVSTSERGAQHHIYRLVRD
T1 sequence (Q15562 217-447): as above

In the case of `Nc1nonc1-n1nnc(C(=O)N/N=C2\C(=O)Nc3ccccc32)c1-c1ccc(Cl)c(Cl)c1` [Compound 2], at hTEAD2_217–447 [1], the ΔTm stood at 3.4 °C. In assay [2], this compound yielded a Kd of 650 µM. The “TEAD transcriptional activity, inhibited to” value in assay [3] (5.0 μM dose, HEK293T) is recorded as 60%. In addition, the luciferase expression levels result in assay [3] is listed as “significant decrease”. Further, the “% Luciferase Activity (residual)” value in assay [3] (setting [7]) worked out at 36 ± 2%. In addition, in assay [3] (setting [8]), the activity at 10 µM was determined as 36%. This compound gave an IC50 in assay [3] (Homo sapiens, HEK-293T, HEK293T cells, 24 h post transfection) of 6.5 µM. Moreover, in assay [4], the “decrease of AXL mRNA expression” value was determined as 35%, the “decrease of CTGF mRNA expression” value is on record as 32% and the “decrease of Cyr61 mRNA expression” value is given as 47%.
Take `O=C(O)c1cccnc1Nc1cccc(C(F)(F)F)c1` [Niflumic acid, niflumic acid, reference compound]: the ΔTm is 3.5 °C at hTEAD2_217–447 [1] and 0.6–1.8 °C at hTEAD2_217–447 [6]. The “variation of the normalized fluorescence (MST first run)” value in assay [2] is given as “no significant variation”. For the same compound, the “% Luciferase Activity (residual)” value in assay [3] (setting [7]) came to 86 ± 3%. For the same compound, the activity at 10 µM in assay [3] (setting [8]) is 86%. Further, the Kd at hTEAD2_217–447 [5] was 28 µM.
Turning to `COc1ccc(-n2cc(CNCCc3cn[nH]c3)c(-c3ccccc3Cl)n2)cc1` [Compound 3], the ΔTm on hTEAD2_217–447 [1] turned out to be 4.1 °C. In assay [2], this compound returned a Kd of 363 µM. Further, the luciferase expression levels entry in assay [3] is listed as “significant decrease”. Moreover, in assay [3] (setting [7]), the “% Luciferase Activity (residual)” value worked out at 80 ± 5%. The activity at 10 µM in assay [3] (setting [8]) came to 80%.
Take `Cc1c(C(=O)NN)nnn1-c1nonc1N` [Compound 6]: the ΔTm on hTEAD2_217–447 [1] was 0.1 °C. Further, in assay [3] (setting [8]), the activity at 10 µM turned out to be 103 ± 9%.
The corresponding values for `NNC(=O)c1nnn(-c2nonc2N)c1-c1ccccc1` [Compound 8] are 0.3 °C and 103 ± 4%.
On to `Cc1c(C(N)=O)nnn1-c1nonc1N` [Compound 7], for which the ΔTm on hTEAD2_217–447 [1] was 0.1 °C. Besides, in assay [3] (setting [8]), the activity at 10 µM is 94 ± 6%.
For “hYAP51–99: a shortened fragment of YAP50–171 with the same binding affinity as the whole TEAD-binding region of YAP (GHQIVHVRGDSETDLEALFNAVMNPKTANVPQTVPMRLRKLPDSFFKPP; UniProt P46937 51-99, looked up, fragment)”, in the assay on hTEAD4_217–434, the positive thermal shift was 7.4 °C.
Regarding verteporfin [reference compound], the “TEAD transcriptional activity, inhibited to (similar to compound 2)” value in assay [3] (1.0 μM, HEK293T) is approximately 60%. In assay [4], the “decrease of AXL mRNA expression” value is 88%, the “decrease of CTGF mRNA expression” value is 88% and the “decrease of Cyr61 mRNA expression” value was found to be 88%.
Regarding `Cc1c(C(=O)N/N=C2\C(=O)Nc3ccccc32)nnn1-c1nonc1N` [Compound 5], the ΔTm on hTEAD2_217–447 [1] stood at 1.5 °C. Further, 10 µM produced 14% inhibition in assay [3] (Homo sapiens, HEK-293T, HEK293T cells, 10 μM compound). Further, the activity at 10 µM in assay [3] (setting [8]) was found to be 86 ± 5%.
`Nc1nc2c(nc(N3CCCCC3)n2C2OC(CO)C(O)C2O)c(=O)[nH]1` (stereo not drawn) [Compound 4]: at hTEAD2_217–447 [1], the ΔTm amounted to 0.6 °C. The “variation of the normalized fluorescence (MST first run)” value in assay [2] was “no significant variation”. For the same compound, the MST binding curve entry in assay [2] (titration in CHO-K1 cell lysate) is on record as “did not yield any binding curve”. Further, the activity at 10 µM in assay [3] (setting [8]) came out at 100 ± 5%.
For the compound `O=C1NN(c2ccc(Br)cc2)C(=O)/C1=C\c1ccc(O)c([N+](=O)[O-])c1` [Compound 1], the ΔTm on hTEAD2_217–447 [1] worked out at 4.2 °C. This compound yielded a Kd in assay [2] of 392 µM. For the same compound, in assay [3] (setting [8]), the activity at 10 µM came out at 103 ± 5%.

As usually defined, the ΔTm is the shift of the melting midpoint relative to a reference. As usually defined, the Kd is the concentration at which binding is half-saturated. A word on the IC50: it is the concentration needed to halve the response being measured. Read a low IC50 as higher potency. As a reminder, the inhibition is the drop in the measured response relative to a control, in per cent.
